Test results taken from ChEMBL document CHEMBL3352491, “Novel semicarbazides and ureas of primaquine with bulky aryl or hydroxyalkyl substituents: synthesis, cytostatic and antioxidative activity” (Eur J Med Chem, 2014).
pIC50: −log10 of the molar value.

Legend:
[1] = Antioxidant activity assessed as DPPH scavenging activity at 100 uM after 60 mins by spectrophotometry; format: physicochemical; settings: 1 h
CCRF-CEM = assay: Cytostatic activity against human CEM cells assessed as growth inhibition after 3 to 4 days by MTT assay; format: functional, cell-based
Lipoxygenase = Lipoxygenase (Glycine max, UniProt Q39829); assay: Inhibition of soybean LOX using sodium linoleate as substrate by spectrophotometry; settings: for pIC50: read-out: IC50
[2] = Cytostatic activity against human MIAPaCa2 cells assessed as growth inhibition after 3 to 4 days by MTT assay; format: functional, cell-based; settings: MIA PaCa-2
SW-620 = assay: Cytostatic activity against human SW620 cells assessed as growth inhibition after 3 to 4 days by MTT assay; format: functional, cell-based
MCF7 = assay: Cytostatic activity against human MCF7 cells assessed as growth inhibition after 3 to 4 days by MTT assay; format: functional, cell-based
[3] = Cytostatic activity against human H460 cells assessed as growth inhibition after 3 to 4 days by MTT assay; format: functional, cell-based; settings: NCI-H460
L1210 = assay: Cytostatic activity against mouse L1210 cells assessed as growth inhibition after 3 to 4 days by MTT assay; format: functional, cell-based
HeLa = assay: Cytostatic activity against human HeLa cells assessed as growth inhibition after 3 to 4 days by MTT assay; format: functional, cell-based
[4] = Antioxidant activity assessed as inhibition of lipid peroxidation at 100 uM by spectrophotometry; format: physicochemical
[5] = Antioxidant activity assessed as DPPH scavenging activity at 100 uM after 20 mins by spectrophotometry; format: physicochemical
[6] = Cytostatic activity against human Molt4/C8 cells assessed as growth inhibition after 3 to 4 days by MTT assay; format: functional, cell-based; settings: MOLT-4
[7] = biological target: Lipoxygenase (Glycine max) (UniProt Q39829); assay: Inhibition of soybean LOX using sodium linoleate as substrate at 100 uM by spectrophotometry

Question: For `COc1cc(NC(C)CCCNC(=O)NC(c2ccccc2)c2ccc(Cl)cc2)c2ncccc2c1` (configuration not stated), which Activity [1] is on record?
Answer: 24%

Question: What about the pIC50 (CCRF-CEM) of the same compound?
Answer: 4.07

Question: And the pIC50 (Lipoxygenase)?
Answer: 4.24

Question: And the pIC50 [2]?
Answer: 3.74

Question: What about the pIC50 (SW-620) of the same compound?
Answer: < 4.00

Question: And the pIC50 (MCF7)?
Answer: < 4.00

Question: What about the pIC50 [3] of the same compound?
Answer: < 4.00

Question: What about the pIC50 (L1210) of the same compound?
Answer: 4.03

Question: What about the pIC50 (HeLa) of the same compound?
Answer: 3.73

Question: What about the “inhibition (INH)” value [4] of the same compound?
Answer: 90%

Question: And the Activity [5]?
Answer: 12%

Question: What about the pIC50 [6] of the same compound?
Answer: ≤ 3.60

Question: Which results are given for `COc1cc(NC(C)CCCNC(=O)NNC(=O)NCCO)c2ncccc2c1` (configuration not stated)?
Answer: Activity [1]: 20%; pIC50 (CCRF-CEM): < 3.60; IC50 (Lipoxygenase): Not Active; pIC50 [2]: ≤ 3.60; pIC50 (SW-620): < 4.00; pIC50 (MCF7): 4.89; pIC50 [3]: < 4.00; pIC50 (L1210): < 3.60; pIC50 (HeLa): 3.71; inhibition (INH) [4]: 27%; Activity [5]: Not Active; pIC50 [6]: < 3.60

Question: Which results are given for `COc1ccc(/C(=N/NC(=O)NNC(=O)NCCCC(C)Nc2cc(OC)cc3cccnc23)c2ccccc2)cc1` (configuration not stated)?
Answer: Activity [1]: 64%; pIC50 (CCRF-CEM): 5.13; pIC50 (Lipoxygenase): 4.22; pIC50 [2]: 4.89; pIC50 (SW-620): 5.15; pIC50 (MCF7): 5.70; pIC50 [3]: 5.15; pIC50 (L1210): 5.21; pIC50 (HeLa): 4.74; inhibition (INH) [4]: 78%; Activity [5]: 47%; pIC50 [6]: 4.92

Question: With `CN(C(=O)n1nnc2ccccc21)C(c1ccccc1)c1ccccc1` as the compound, how does the Activity [1] read?
Answer: Not Active

Question: What about the pIC50 (CCRF-CEM) of the same compound?
Answer: 4.62

Question: And the pIC50 (Lipoxygenase)?
Answer: 4.06

Question: What about the pIC50 [2] of the same compound?
Answer: 4.59

Question: What about the pIC50 (SW-620) of the same compound?
Answer: ≤ 4.00

Question: And the pIC50 (MCF7)?
Answer: 4.64

Question: And the pIC50 [3]?
Answer: 4.57

Question: And the pIC50 (L1210)?
Answer: 4.82

Question: And the pIC50 (HeLa)?
Answer: 4.60

Question: And the “inhibition (INH)” value [4]?
Answer: 76%

Question: And the Activity [5]?
Answer: 3%

Question: What about the pIC50 [6] of the same compound?
Answer: 4.55

Question: Which results are given for `COc1ccc(/C(=N/NC(=O)NCCCC(C)Nc2cc(OC)cc3cccnc23)c2ccccc2)cc1` (configuration not stated)?
Answer: Activity [1]: 26%; pIC50 (CCRF-CEM): 5.00; pIC50 (Lipoxygenase): 4.22; pIC50 [2]: 3.81; pIC50 (SW-620): < 4.00; pIC50 (MCF7): 5.30; pIC50 [3]: < 4.00; pIC50 (L1210): 4.47; pIC50 (HeLa): 3.89; inhibition (INH) [4]: 77%; Activity [5]: 19%; pIC50 [6]: ≤ 3.60

Question: Which Activity [1] does the source give for `COc1ccc(C(=NNC(=O)NCCCC(C)Nc2cc(OC)cc3cccnc23)c2ccc(OC)cc2)cc1` (configuration not stated) here?
Answer: 14%

Question: And the pIC50 (CCRF-CEM)?
Answer: < 3.60

Question: What about the pIC50 (Lipoxygenase) of the same compound?
Answer: 4.22

Question: And the pIC50 [2]?
Answer: < 3.60

Question: What about the pIC50 (SW-620) of the same compound?
Answer: < 4.00

Question: What about the pIC50 (MCF7) of the same compound?
Answer: 5.22

Question: What about the pIC50 [3] of the same compound?
Answer: < 4.00

Question: What about the pIC50 (L1210) of the same compound?
Answer: < 3.60

Question: And the pIC50 (HeLa)?
Answer: < 3.60

Question: And the “inhibition (INH)” value [4]?
Answer: 98%

Question: And the Activity [5]?
Answer: 5%

Question: What about the pIC50 [6] of the same compound?
Answer: < 3.60

Question: With `CC(Cc1ccc(O)c(O)c1)C(C)Cc1ccc(O)c(O)c1` (configuration not stated) [NORDIHYDROGUAIARETIC ACID] as the compound, how does the Activity [1] read?
Answer: 91%

Question: And the pIC50 (Lipoxygenase)?
Answer: 4.55

Question: What about the inhibition [7] of the same compound?
Answer: 84%

Question: And the Activity [5]?
Answer: 80%

Question: What does the source list for `COc1cc(NC(C)CCCNC(=O)NNC(=O)NCCNC(c2ccccc2)(c2ccccc2)c2ccccc2)c2ncccc2c1` (configuration not stated)?
Answer: Activity [1]: 41%; pIC50 (CCRF-CEM): 5.38; pIC50 (Lipoxygenase): 4.00; pIC50 [2]: 5.30; pIC50 (SW-620): 5.15; pIC50 (MCF7): 5.70; pIC50 [3]: 5.40; pIC50 (L1210): 5.21; pIC50 (HeLa): 5.00; inhibition (INH) [4]: 88%; Activity [5]: 30%; pIC50 [6]: 5.10

Question: Which Activity [1] does the source give for `COc1cc(NC(C)CCCNC(=O)NNC(=O)NCCCO)c2ncccc2c1` (configuration not stated) here?
Answer: 20%

Question: What about the pIC50 (CCRF-CEM) of the same compound?
Answer: < 3.60

Question: What about the IC50 (Lipoxygenase) of the same compound?
Answer: Not Active

Question: What about the pIC50 [2] of the same compound?
Answer: ≤ 3.60

Question: What about the pIC50 (SW-620) of the same compound?
Answer: < 4.00

Question: What about the pIC50 (MCF7) of the same compound?
Answer: 4.89

Question: What about the pIC50 [3] of the same compound?
Answer: < 4.00

Question: And the pIC50 (L1210)?
Answer: < 3.60

Question: What about the pIC50 (HeLa) of the same compound?
Answer: < 3.60

Question: And the “inhibition (INH)” value [4]?
Answer: 45%

Question: And the Activity [5]?
Answer: 9%

Question: And the pIC50 [6]?
Answer: < 3.60

Question: Which Activity [1] does the source give for `COc1cc(NC(C)CCCNC(=O)NCCNC(c2ccccc2)(c2ccccc2)c2ccccc2)c2ncccc2c1` (configuration not stated) here?
Answer: 12%

Question: What about the pIC50 (CCRF-CEM) of the same compound?
Answer: 5.00

Question: What about the pIC50 (Lipoxygenase) of the same compound?
Answer: 4.03

Question: What about the pIC50 [2] of the same compound?
Answer: 4.40

Question: And the pIC50 (SW-620)?
Answer: 4.27

Question: What about the pIC50 (MCF7) of the same compound?
Answer: 4.35

Question: What about the pIC50 [3] of the same compound?
Answer: < 4.00

Question: And the pIC50 (L1210)?
Answer: 4.40

Question: And the pIC50 (HeLa)?
Answer: 4.42

Question: And the “inhibition (INH)” value [4]?
Answer: 89%

Question: What about the Activity [5] of the same compound?
Answer: Not Active

Question: And the pIC50 [6]?
Answer: 3.68
